Data: US12601718B2, “Method for pretreating ranitidine hydrochloride sample” (Hunan Institute for Drug Inspection and Testing, priority 2022, dated 2026)

What was measured:
[1] = cited from earlier work
[2] = cited from earlier work; remark: listed apart in the source
[3] = NDMA carcinogenicity / acceptable intake from CPDB toxicological data (TD50 linear extrapolation, rodent carcinogenicity data); assay type: in vivo; conditions: 0.0959 μg÷300 mg
Experimental: According to the toxicological data in the FDA according to the Carcinogenic Potency Database (CPDB database), the NDMA acceptable daily intake is set at about 0.096 μg. On Sep. 13, 2019, the FDA released a safety warning that some Ranitidine-based drugs (including the brand-name drug Zantac) contain the impurity of N-nitrosodimethylamine (NDMA). Subsequently, China launched special inspections and testing on NDMA for this variety.

Row | SMILES | solubility in dichloromethane [1] | solubility in water [1] | NDMA acceptable daily intake ([2]; FDA, according to CPDB database) | carcinogen class ([2]; in vivo) | limit value of the impurity NDMA in Ranitidine hydrochloride capsules [3]
1 | CNC(=C[N+](=O)[O-])NCCSCc1ccc(CN(C)C)o1 [Ranitidine] | almost insoluble | readily soluble |  |  | 
2 | CN(C)N=O [NDMA, N-nitrosodimethylamine] | almost insoluble | readily soluble | about 0.096 μg | class-2A carcinogen | ≈ 320 ng/g
